Columns and labels:
[1] = test system: primary bronchial adenocarcinoma with bilateral pulmonary metastases and asymptomatic cerebral metastases; test: Clinical course under treatment, patient of Example 3; format: in vivo, human; details: Example 3 patient
Source text: A patient was diagnosed in May 2007 for a primary bronchial adenocarcinoma with bilateral pulmonary metastases and asymptomatic cerebral metastases. A surgical treatment has been carried out in November 2008 and two therapeutic lines have been used, namely thirteen cycles of cisplatin-gemcitabin for the first line and Alimta for the second one.
However, based on this score table, avastin associated with a score of 384 has been selected.

[2] = test system: bronchial adenocarcinoma T4 with bones and pleural metastases; details: Example 2 patient; for Clinical outcome: bronchial adenocarcinoma
[3] = test system: non-small cell lung carcinoma (NSCLC), cT4, N0, M1; test: Clinical course under treatment, patient of Example 1; format: in vivo, human; details: Example 1 patient, new subclavious metastasis
Source text: The patient was a person. They suffered of a non-small cell lung carcinoma (NSCLC), cT4, N0, M1. […] For HKI 272, the patient has been included in a clinical trial.
Lapatinib, an anti-HER1 and -HER2 inhibitor, was justified, even if no mutation was detected in EGFR, because EGF overexpressed 15 folds in the patient and it was needed to continue HKI 272.

BEVACIZUMAB: VEGFA gene is regarded as major target gene for bevacizumab
Clinical outcome [1]: major response has been observed after two treatment cycles

CCC1=C[C@@H]2CN(C1)Cc1c([nH]c3ccccc13)[C@@](C(=O)OC)(c1cc3c(cc1OC)N(C)[C@H]1[C@@](O)(C(=O)OC)[C@H](OC(C)=O)[C@]4(CC)C=CCN5CC[C@]31[C@@H]54)C2 [VINORELBINE]
Clinical outcome [2]: the disease was stable, then progressed
Survival conferred ([2]; treatment since January 2010): three months survival

Nc1nc2[nH]cc(CCc3ccc(C(=O)N[C@@H](CCC(=O)O)C(=O)O)cc3)c2c(=O)[nH]1 [PEMETREXED]
Clinical outcome [1]: only associated with a disease progression

C#Cc1cccc(Nc2ncnc3cc(OCCOC)c(OCCOC)cc23)c1 [Tarceva]
Clinical outcome [2]: inefficient and led to a rapid progression

CCOc1cc2ncc(C#N)c(Nc3ccc(OCc4ccccn4)c(Cl)c3)c2cc1NC(=O)/C=C/CN(C)C [HKI 272]
Duration of treatment until disease progression was observed [3]: 37 months
